In patent US4068070A, “α-Cyanoamine compounds and a process for producing the same” (Fuji Chemical Industry Co., Ltd., priority 1974, dated 1978):

Assays:
Format in all cases: in vivo, mongrel adult dogs
aortic blood flow = experiment: Effects on aortic blood flow
Experimental: (§1) All experiments were made on male and female thoractomized mongrel adult dogs weighing about 10 kg. under anesthesia with pentobarbital sodium. Compounds A, D, E and F were suspended in 0.2% CMC solution, Compound B dissolved in hydrochloric acid solution (pH 6), and Compound C and active placebo being dissolved in physiological saline solution. Animals were administered the drug intravenously on brachiuma with either test compound or active placebo.
(§2) Arterial blood pressure was measured by pressure transducer (Nippon Koden MPU-0.5) connected with the cannula inserted from exposed carotid artery into aorta. Aortic blood flow was determined by means of electromagnetic flow meter (Nippon Koden MF-5) mounted at the origin of the aorta. Coronary sinus out flow and coronary sinus oxygen tension were assessed by means of electromagnetic flow meter (Nippon Koden MF-5) and P02 macro electrode (Beokmann Moder 160-C), respectively using Morawitz cannulization technique. Heart rate was measured by cardiotachometer (Nippon Koden RT-2) synchronized with systolic blood pressure of aorta.

heart rate = experiment: Effects on heart rate
Experimental: as §1, §2

[1] = system: arterial mean blood pressure; experiment: Effects on arterial mean blood pressure
Experimental: as §1, §2

coronary sinus out flow = experiment: Effects on coronary sinus out flow
Experimental: as §1, §2

[2] = system: coronary sinus oxygen tension; experiment: Effects on coronary sinus oxygen tension
Experimental: as §1, §2

SMILES: CCOC(=O)CN1CCN(C(C#N)c2ccc(OC)c(OC)c2)CC1 (centres unmarked) [Compound B]
- Changes (%) of basal values, aortic blood flow (aortic blood flow; 0.2 mg/kg i.v., 1 min): +1.2%
- Changes (%) of basal values, aortic blood flow (aortic blood flow; 0.2 mg/kg i.v., 5 min): +0.3%
- Changes (%) of basal values, aortic blood flow (aortic blood flow; 0.2 mg/kg i.v., 10 min): -0.1%
- Changes (%) of basal values, aortic blood flow (aortic blood flow; 0.2 mg/kg i.v., 20 min): 0%
- Changes (%) of basal values, aortic blood flow (aortic blood flow; 0.2 mg/kg i.v., 30 min): 0%
- Changes (%) of basal values, aortic blood flow (aortic blood flow; 0.2 mg/kg i.v., 40 min): 0%
- Changes (%) of basal values, aortic blood flow (aortic blood flow; 0.2 mg/kg i.v., imm.): +2.5%
- Changes (%) of basal values, aortic blood flow (aortic blood flow; 0.6 mg/kg i.v., 1 min): +1.6%
- Changes (%) of basal values, aortic blood flow (aortic blood flow; 0.6 mg/kg i.v., 5 min): +2.3%
- Changes (%) of basal values, aortic blood flow (aortic blood flow; 0.6 mg/kg i.v., 10 min): 0%
- Changes (%) of basal values, aortic blood flow (aortic blood flow; 0.6 mg/kg i.v., 20 min): -1.1%
- Changes (%) of basal values, aortic blood flow (aortic blood flow; 0.6 mg/kg i.v., 30 min): -0.7%
- Changes (%) of basal values, aortic blood flow (aortic blood flow; 0.6 mg/kg i.v., 40 min): 0%
- Changes (%) of basal values, aortic blood flow (aortic blood flow; 0.6 mg/kg i.v., imm.): +4.8%
- Changes (%) of basal values, aortic blood flow (aortic blood flow; 2.0 mg/kg i.v., 1 min): +4.3%
- Changes (%) of basal values, aortic blood flow (aortic blood flow; 2.0 mg/kg i.v., 5 min): -1.2%
- Changes (%) of basal values, aortic blood flow (aortic blood flow; 2.0 mg/kg i.v., 10 min): -2.1%
- Changes (%) of basal values, aortic blood flow (aortic blood flow; 2.0 mg/kg i.v., 20 min): -1.8%
- Changes (%) of basal values, aortic blood flow (aortic blood flow; 2.0 mg/kg i.v., 30 min): 0%
- Changes (%) of basal values, aortic blood flow (aortic blood flow; 2.0 mg/kg i.v., 40 min): 0%
- Changes (%) of basal values, aortic blood flow (aortic blood flow; 2.0 mg/kg i.v., imm.): +6.2%
- Effects on aortic blood flow (in words) (aortic blood flow; i.v., anesthetized dogs): an increase in blood flow immediately after administration, followed by a decrease in blood flow
- Changes(%) of basal values, heart rate (heart rate; 0.2 mg/kg i.v., 1 min): -0.9%
- Changes(%) of basal values, heart rate (heart rate; 0.2 mg/kg i.v., 5 min): 0%
- Changes(%) of basal values, heart rate (heart rate; 0.2 mg/kg i.v., 10 min): 0%
- Changes(%) of basal values, heart rate (heart rate; 0.2 mg/kg i.v., 20 min): 0%
- Changes(%) of basal values, heart rate (heart rate; 0.2 mg/kg i.v., 30 min): 0%
- Changes(%) of basal values, heart rate (heart rate; 0.2 mg/kg i.v., 40 min): 0%
- Changes(%) of basal values, heart rate (heart rate; 0.2 mg/kg i.v., imm.): -2.4%
- Changes(%) of basal values, heart rate (heart rate; 0.6 mg/kg i.v., 1 min): +0.6%
- Changes(%) of basal values, heart rate (heart rate; 0.6 mg/kg i.v., 5 min): -0.8%
- Changes(%) of basal values, heart rate (heart rate; 0.6 mg/kg i.v., 10 min): -0.2%
- Changes(%) of basal values, heart rate (heart rate; 0.6 mg/kg i.v., 20 min): 0%
- Changes(%) of basal values, heart rate (heart rate; 0.6 mg/kg i.v., 30 min): -0.5%
- Changes(%) of basal values, heart rate (heart rate; 0.6 mg/kg i.v., 40 min): 0%
- Changes(%) of basal values, heart rate (heart rate; 0.6 mg/kg i.v., imm.): -13.1%
- Changes(%) of basal values, heart rate (heart rate; 2.0 mg/kg i.v., 1 min): -2.4%
- Changes(%) of basal values, heart rate (heart rate; 2.0 mg/kg i.v., 5 min): -1.5%
- Changes(%) of basal values, heart rate (heart rate; 2.0 mg/kg i.v., 10 min): -0.7%
- Changes(%) of basal values, heart rate (heart rate; 2.0 mg/kg i.v., 20 min): 0%
- Changes(%) of basal values, heart rate (heart rate; 2.0 mg/kg i.v., 30 min): 0%
- Changes(%) of basal values, heart rate (heart rate; 2.0 mg/kg i.v., 40 min): 0%
- Changes(%) of basal values, heart rate (heart rate; 2.0 mg/kg i.v., imm.): -25.3%
- Effects on heart rate (in words) (heart rate; i.v., anesthetized dogs): a slight negative chronotropic effect
- Changes (%) of basal values, arterial mean blood pressure ([1]; 0.2 mg/kg i.v., 1 min): +4.8%
- Changes (%) of basal values, arterial mean blood pressure ([1]; 0.2 mg/kg i.v., 5 min): +0.4%
- Changes (%) of basal values, arterial mean blood pressure ([1]; 0.2 mg/kg i.v., 10 min): +0.1%
- Changes (%) of basal values, arterial mean blood pressure ([1]; 0.2 mg/kg i.v., 20 min): -0.1%
- Changes (%) of basal values, arterial mean blood pressure ([1]; 0.2 mg/kg i.v., 30 min): 0%
- Changes (%) of basal values, arterial mean blood pressure ([1]; 0.2 mg/kg i.v., 40 min): 0%
- Changes (%) of basal values, arterial mean blood pressure ([1]; 0.2 mg/kg i.v., imm.): -5.0%
- Changes (%) of basal values, arterial mean blood pressure ([1]; 0.6 mg/kg i.v., 1 min): +6.2%
- Changes (%) of basal values, arterial mean blood pressure ([1]; 0.6 mg/kg i.v., 5 min): +0.1%
- Changes (%) of basal values, arterial mean blood pressure ([1]; 0.6 mg/kg i.v., 10 min): -0.3%
- Changes (%) of basal values, arterial mean blood pressure ([1]; 0.6 mg/kg i.v., 20 min): 0%
- Changes (%) of basal values, arterial mean blood pressure ([1]; 0.6 mg/kg i.v., 30 min): 0%
- Changes (%) of basal values, arterial mean blood pressure ([1]; 0.6 mg/kg i.v., 40 min): 0%
- Changes (%) of basal values, arterial mean blood pressure ([1]; 0.6 mg/kg i.v., imm.): -14.4%
- Changes (%) of basal values, arterial mean blood pressure ([1]; 3.0 mg/kg i.v., 1 min): +7.0%
- Changes (%) of basal values, arterial mean blood pressure ([1]; 3.0 mg/kg i.v., 5 min): +2.5%
- Changes (%) of basal values, arterial mean blood pressure ([1]; 3.0 mg/kg i.v., 10 min): +0.4%
- Changes (%) of basal values, arterial mean blood pressure ([1]; 3.0 mg/kg i.v., 20 min): -1.0%
- Changes (%) of basal values, arterial mean blood pressure ([1]; 3.0 mg/kg i.v., 30 min): -0.5%
- Changes (%) of basal values, arterial mean blood pressure ([1]; 3.0 mg/kg i.v., 40 min): 0%
- Changes (%) of basal values, arterial mean blood pressure ([1]; 3.0 mg/kg i.v., imm.): -16.2%
- Effects on arterial mean blood pressure (in words) ([1]; i.v., anesthetized dogs): transitory hypotensive effect immediately after administration, and thereafter increased blood pressure which was then, from 10 minutes after medication, returned to the level before treatment
- Changes(%) of basal values, coronary sinus out flow (coronary sinus out flow; 0.2 mg/kg i.v., 1 min): +4.9%
- Changes(%) of basal values, coronary sinus out flow (coronary sinus out flow; 0.2 mg/kg i.v., 5 min): +0.7%
- Changes(%) of basal values, coronary sinus out flow (coronary sinus out flow; 0.2 mg/kg i.v., 10 min): 0%
- Changes(%) of basal values, coronary sinus out flow (coronary sinus out flow; 0.2 mg/kg i.v., 20 min): -0.3%
- Changes(%) of basal values, coronary sinus out flow (coronary sinus out flow; 0.2 mg/kg i.v., 30 min): 0%
- Changes(%) of basal values, coronary sinus out flow (coronary sinus out flow; 0.2 mg/kg i.v., 40 min): 0%
- Changes(%) of basal values, coronary sinus out flow (coronary sinus out flow; 0.2 mg/kg i.v., imm.): +18.0%
- Changes(%) of basal values, coronary sinus out flow (coronary sinus out flow; 0.6 mg/kg i.v., 1 min): +30.7%
- Changes(%) of basal values, coronary sinus out flow (coronary sinus out flow; 0.6 mg/kg i.v., 5 min): +0.9%
- Changes(%) of basal values, coronary sinus out flow (coronary sinus out flow; 0.6 mg/kg i.v., 10 min): -0.7%
- Changes(%) of basal values, coronary sinus out flow (coronary sinus out flow; 0.6 mg/kg i.v., 20 min): -0.2%
- Changes(%) of basal values, coronary sinus out flow (coronary sinus out flow; 0.6 mg/kg i.v., 30 min): 0%
- Changes(%) of basal values, coronary sinus out flow (coronary sinus out flow; 0.6 mg/kg i.v., 40 min): 0%
- Changes(%) of basal values, coronary sinus out flow (coronary sinus out flow; 0.6 mg/kg i.v., imm.): +39.5%
- Changes(%) of basal values, coronary sinus out flow (coronary sinus out flow; 2.0 mg/kg i.v., 1 min): +47.4%
- Changes(%) of basal values, coronary sinus out flow (coronary sinus out flow; 2.0 mg/kg i.v., 5 min): +8.2%
- Changes(%) of basal values, coronary sinus out flow (coronary sinus out flow; 2.0 mg/kg i.v., 10 min): +5.9%
- Changes(%) of basal values, coronary sinus out flow (coronary sinus out flow; 2.0 mg/kg i.v., 20 min): +3.2%
- Changes(%) of basal values, coronary sinus out flow (coronary sinus out flow; 2.0 mg/kg i.v., 30 min): +1.5%
- Changes(%) of basal values, coronary sinus out flow (coronary sinus out flow; 2.0 mg/kg i.v., 40 min): 0%
- Changes(%) of basal values, coronary sinus out flow (coronary sinus out flow; 2.0 mg/kg i.v., imm.): +55.1%
- Effects on coronary sinus out flow (in words) (coronary sinus out flow; i.v., anesthetized dogs): a marked increasing effect on coronary sinus out flow, which was proportioned to doses thereof and of long duration
- Changes(%) of basal values, coronary sinus oxygen tension ([2]; 0.2 mg/kg i.v., 1 min): +11.3%
- Changes(%) of basal values, coronary sinus oxygen tension ([2]; 0.2 mg/kg i.v., 5 min): +1.0%
- Changes(%) of basal values, coronary sinus oxygen tension ([2]; 0.2 mg/kg i.v., 10 min): -2.0%
- Changes(%) of basal values, coronary sinus oxygen tension ([2]; 0.2 mg/kg i.v., 20 min): -0.5%
- Changes(%) of basal values, coronary sinus oxygen tension ([2]; 0.2 mg/kg i.v., 30 min): 0%
- Changes(%) of basal values, coronary sinus oxygen tension ([2]; 0.2 mg/kg i.v., 40 min): 0%
- Changes(%) of basal values, coronary sinus oxygen tension ([2]; 0.2 mg/kg i.v., imm.): +25.5%
- Changes(%) of basal values, coronary sinus oxygen tension ([2]; 0.6 mg/kg i.v., 1 min): +46.4%
- Changes(%) of basal values, coronary sinus oxygen tension ([2]; 0.6 mg/kg i.v., 5 min): +8.9%
- Changes(%) of basal values, coronary sinus oxygen tension ([2]; 0.6 mg/kg i.v., 10 min): -3.2%
- Changes(%) of basal values, coronary sinus oxygen tension ([2]; 0.6 mg/kg i.v., 20 min): -0.9%
- Changes(%) of basal values, coronary sinus oxygen tension ([2]; 0.6 mg/kg i.v., 30 min): 0%
- Changes(%) of basal values, coronary sinus oxygen tension ([2]; 0.6 mg/kg i.v., 40 min): 0%
- Changes(%) of basal values, coronary sinus oxygen tension ([2]; 0.6 mg/kg i.v., imm.): +68.4%
- Changes(%) of basal values, coronary sinus oxygen tension ([2]; 2.0 mg/kg i.v., 1 min): +70.9%
- Changes(%) of basal values, coronary sinus oxygen tension ([2]; 2.0 mg/kg i.v., 5 min): +26.7%
- Changes(%) of basal values, coronary sinus oxygen tension ([2]; 2.0 mg/kg i.v., 10 min): +8.0%
- Changes(%) of basal values, coronary sinus oxygen tension ([2]; 2.0 mg/kg i.v., 20 min): +3.0%
- Changes(%) of basal values, coronary sinus oxygen tension ([2]; 2.0 mg/kg i.v., 30 min): +0.8%
- Changes(%) of basal values, coronary sinus oxygen tension ([2]; 2.0 mg/kg i.v., 40 min): 0%
- Changes(%) of basal values, coronary sinus oxygen tension ([2]; 2.0 mg/kg i.v., imm.): +80.7%
- Effects on coronary sinus oxygen tension (in words) ([2]; i.v., anesthetized dogs): a significant increase in coronary sinus oxygen tension, effect of which was of long duration
